Patent US10875837B2, “Inhibitors of the fibroblast growth factor receptor” (BLUEPRINT MEDICINES CORPORATION, priority 2013, dated 2020)

Key:
wild type FGFR-4 = molecular target: T1, wild type FGFR-4 (Homo sapiens, UniProt P22455); experiment: FGFR-4 wild type assay at Km (Caliper electrophoretic mobility shift); type: biochemical; conditions: wild type FGFR-4, 400 uM ATP, 25 C, 90 minutes; read-out: INH-FGFR4
T1 construct: purchased Carna Biosciences, Inc
Method: Biochemical Activity Assessment In order to assess the activity of chemical compounds against the relevant kinase of interest, the Caliper LifeSciences electrophoretic mobility shift technology platform is utilized. Fluorescently labeled substrate peptide is incubated in the presence dosed levels of compounds, a set concentration of kinase and of ATP, so that a reflective proportion of the peptide is phosphorylated. At the end of the reaction, the mix of phosphorylated (product) and non-phosphorylated (substrate) peptides are passed through the microfluidic system of the Caliper LabChip® EZ Reader II, under an applied potential difference. The presence of the phosphate group on the product peptide provides a difference in mass and charge between the product peptide and the substrate peptide, resulting in a separation of the substrate and product pools in the sample. As the pools pass the LEDS within the instrument, these pools are detected and resolved as separate peaks. The ratio between these peaks therefore reflects the activity of the chemical matter at that concentration in that well, under those conditions.
FGFR-4 wild type assay at Km: In each well of a 384-well plate, 0.5 ng/ul of wild type FGFR-4 (Carna Biosciences, Inc.) was incubated in a total of 12.5 ul of buffer (100 mM HEPES pH 7.5, 0.015% Brij 35, 10 mM MgCl2, 1 mM DTT) with 1 uM CSKtide (5-FAM-KKKKEEIYFFFG-NH2) and 400 uM ATP at 25 C for 90 minutes in the presence or absence of a dosed concentration series of compound (1% DMSO final concentration). The reaction was stopped by the addition of 70 ul of Stop buffer (100 mM HEPES pH 7.5, 0.015% Brij 35, 35 mM EDTA and 0.2% of Coating Reagent 3 (Caliper Lifesciences)). The plate was then read on a Caliper LabChip® EZ Reader II (protocol settings: −1.9 psi, upstream voltage −700, downstream voltage −3000, post sample sip 35 s).

[1] = test system: pMAPK (Thr202/Tyr204) in MDA-MB453 or DMS 114 cells; experiment: Detection of pMAPK (Thr202/Tyr204) using Alpha ELISA (pERK alphaLISA); type: cell-based; conditions: 1 hr incubation with compound; cell line not given (MDA-MB453 or DMS 114)
Method: Detection of pMAPK (Thr202/Tyr204) Using Alpha ELISA
MDA-MB453 or DMS 114 cells were plated in 96-well cell culture plates at a density of 1×10^5 cells or 3×10^4 cells, respectively. Cells were allowed to attach, and growth media was replaced with serum free media. Compounds were added at the indicated concentrations. Following 1 hr incubation in the presence of compound, cells were collected. For the DMS 114 cells, 100 ng/mL FGF2 was added for 10 min prior to cell collection. Cell lysates were prepared and processed according to manufacturer instruction (AlphaScreen® SureFire™ Phospho-ERK 1/2 Kit (Perkin Elmer).

T1 sequence (P22455 22-802): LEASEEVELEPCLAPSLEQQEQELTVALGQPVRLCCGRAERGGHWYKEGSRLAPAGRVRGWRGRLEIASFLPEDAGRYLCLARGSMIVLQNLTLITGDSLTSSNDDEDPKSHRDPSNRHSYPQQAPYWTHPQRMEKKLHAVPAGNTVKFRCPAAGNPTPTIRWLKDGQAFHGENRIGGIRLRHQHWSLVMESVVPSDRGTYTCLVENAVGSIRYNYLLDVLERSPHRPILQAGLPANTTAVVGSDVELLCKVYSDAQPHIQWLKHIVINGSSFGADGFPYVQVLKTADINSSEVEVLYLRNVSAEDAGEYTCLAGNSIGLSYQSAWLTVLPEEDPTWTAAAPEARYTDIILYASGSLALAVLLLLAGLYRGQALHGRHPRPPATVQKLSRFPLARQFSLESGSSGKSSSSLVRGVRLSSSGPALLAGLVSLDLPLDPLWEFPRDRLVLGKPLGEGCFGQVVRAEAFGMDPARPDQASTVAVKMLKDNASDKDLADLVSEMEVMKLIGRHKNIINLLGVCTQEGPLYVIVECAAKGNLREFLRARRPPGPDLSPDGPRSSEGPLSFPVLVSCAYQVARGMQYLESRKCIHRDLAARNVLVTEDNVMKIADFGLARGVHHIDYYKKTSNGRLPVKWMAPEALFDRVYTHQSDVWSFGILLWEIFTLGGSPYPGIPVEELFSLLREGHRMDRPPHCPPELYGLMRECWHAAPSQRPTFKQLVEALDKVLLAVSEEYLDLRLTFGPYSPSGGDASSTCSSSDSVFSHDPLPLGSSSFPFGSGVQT

Row | SMILES | IC50 (wild type FGFR-4) [nM] | IC50 [1] [nM]
1 | C=CC(=O)N[C@H]1CCOC[C@H]1Nc1ncc2cc(-c3c(Cl)c(OC)cc(OC)c3Cl)cnc2n1 [Compound 44] | 10 to 100 | 10 to 100
2 | C=CC(=O)N[C@@H]1COC[C@@H]1Nc1ncc2cc(-c3c(Cl)c(OC)cc(OC)c3Cl)ccc2n1 [Compound 26] | 10 to 100 | 100 to 1000
3 | C=CC(=O)N[C@H]1COCC[C@H]1Nc1ncc2cc(-c3c(Cl)c(OC)cc(OC)c3Cl)ccc2n1 [Compound 41] | 10 to 100 | 100 to 1000
4 | C=CC(=O)N[C@H]1CN(C(=O)OC(C)(C)C)C[C@H]1Nc1ncc2cc(-c3c(Cl)c(OC)cc(OC)c3Cl)ccc2n1 (racemic) [Compound 90] | 10 to 100 | 100 to 1000
5 | C=CC(=O)N[C@H]1CCC[C@H]1Nc1ncc2cc(-c3c(Cl)c(OC)cc(OC)c3Cl)ccc2n1 [Compound 24] | 10 to 100 | 10 to 100
6 | C=CC(=O)N[C@H]1CCC[C@H]1Nc1ncc2nc(-c3c(Cl)c(OC)cc(OC)c3Cl)c(=O)n(CC)c2n1 [Compound 63] | 10 to 100 | 100 to 1000
7 | C=CC(=O)N[C@H]1CCCC[C@H]1Nc1ncc2cc(-c3c(Cl)c(OC)cc(OC)c3Cl)ccc2n1 [Compound 34, N-((1S,2R)-2-((6-(2,6-dichloro-3,5-dimethoxyphenyl)quinazolin-2-yl)amino)cyclohexyl)acrylamide] | 10 to 100 | 10 to 100
8 | C=CC(=O)NC1COCC1Nc1ncc2cc(-c3c(Cl)c(OC)cc(OC)c3Cl)ccc2n1 (stereo not shown) [Compound 28] | < 10 | 10 to 100
9 | C=CC(=O)N[C@H]1COC[C@H]1Nc1ncc2cc(-c3c(Cl)c(OC)cc(OC)c3Cl)cnc2n1 [Compound 29] | 10 to 100 | < 10
10 | C=CC(=O)N[C@H]1CN(C(=O)CN)C[C@H]1Nc1ncc2cc(-c3c(Cl)c(OC)cc(OC)c3Cl)ccc2n1 (racemic) [Compound 74] | 10 to 100 | 100 to 1000
11 | C=CC(=O)N[C@H]1CN(C(C)=O)C[C@H]1Nc1ncc2cc(-c3c(Cl)c(OC)cc(OC)c3Cl)ccc2n1 [Compound 56, N-((3S,4R)-1-acetyl-4-((6-(2,6-dichloro-3,5-dimethoxyphenyl)quinazolin-2-yl)amino)pyrrolidin-3-yl)acrylamide] | < 10 | < 10
12 | C=CC(=O)N[C@H]1CN(S(=O)(=O)CC)C[C@H]1Nc1ncc2cc(-c3c(Cl)c(OC)cc(OC)c3Cl)ccc2n1 [Compound 89] | < 10 | 10 to 100
13 | C=CC(=O)N[C@H]1CCC[C@H]1Nc1ncc2cc(-c3c(Cl)c(OC)cc(OC)c3Cl)cc(F)c2n1 [Compound 45] | 10 to 100 | 10 to 100
14 | C=CC(=O)N[C@H]1CCCC[C@H]1Nc1ncc2cc(-c3c(Cl)c(OC)cc(OC)c3Cl)c(=O)n(CC)c2n1 [Compound 77] | 10 to 100 | 10 to 100
15 | C=CC(=O)NC1CN(C(=O)CO)CC1Nc1ncc2cc(-c3c(Cl)c(OC)cc(OC)c3Cl)ccc2n1 (stereo not shown) [Compound 75] | < 10 | 10 to 100
16 | C=CC(=O)NC1CN(C(=O)CN(C)C)CC1Nc1ncc2cc(-c3c(Cl)c(OC)cc(OC)c3Cl)ccc2n1 (stereo not shown) [Compound 88] | < 10 | 10 to 100
17 | C=CC(=O)N[C@H]1CCOC[C@H]1Nc1ncc2cc(-c3c(Cl)c(OC)cc(OC)c3Cl)c(F)cc2n1 [Compound 51] | < 10 | < 10
18 | C=CC(=O)N[C@@H]1CCNC[C@@H]1Nc1ncc2cc(-c3c(Cl)c(OC)cc(OC)c3Cl)ccc2n1 [Compound 39] | > 1000 | 

Next, values leading:

Row | IC50 (wild type FGFR-4) [nM] | IC50 [1] [nM] | SMILES
19 | < 10 | < 10 | C=CC(=O)N[C@H]1CCOC[C@H]1Nc1ncc2cc(-c3c(Cl)c(OC)cc(OC)c3Cl)cc(F)c2n1 [Compound 52]
20 | < 10 | < 10 | C=CC(=O)N[C@H]1CCOC[C@H]1Nc1ncc2cc(-c3c(Cl)c(OC)cc(OC)c3Cl)ccc2n1 [Compound 40, N-((3S,4S)-3-((6-(2,6-dichloro-3,5-dimethoxyphenyl)quinazolin-2-yl)amino)tetrahydro-2H-pyran-4-yl)acrylamide]
21 | < 10 | < 10 | C=CC(=O)N[C@H]1CN(C(=O)NCC)C[C@H]1Nc1ncc2cc(-c3c(Cl)c(OC)cc(OC)c3Cl)ccc2n1 [Compound 83, (3S,4R)-3-acrylamido-4-((6-(2,6-dichloro-3,5-dimethoxyphenyl)quinazolin-2-yl)amino)-N-ethylpyrrolidine-1-carboxamide]
22 | < 10 | 10 to 100 | C=CC(=O)N[C@H]1CN(C(=O)OCC)C[C@H]1Nc1ncc2cc(-c3c(Cl)c(OC)cc(OC)c3Cl)ccc2n1 [Compound 84]
23 | < 10 | < 10 | C=CC(=O)N[C@H]1C[C@@H]2C[C@@H]2[C@H]1Nc1ncc2cc(-c3c(Cl)c(OC)cc(OC)c3Cl)ccc2n1 [Compound 32, N-((1S,2R,3S,5S)-2-((6-(2,6-dichloro-3,5-dimethoxyphenyl)quinazolin-2-yl)amino)bicyclo[3.1.0]hexan-3-yl)acrylamide]
24 | < 10 | 10 to 100 | C=CC(=O)N[C@H]1CCC[C@H]1Nc1ncc2cc(-c3c(Cl)c(OC)cc(OC)c3Cl)c(=O)n(CC)c2n1 [Compound 62, N-((1S,2R)-2-((6-(2,6-dichloro-3,5-dimethoxyphenyl)-8-ethyl-7-oxo-7,8-dihydropyrido[2,3-d]pyrimidin-2-yl)amino)cyclopentyl)acrylamide]
25 | < 10 | < 10 | C=CC(=O)N[C@H]1COC[C@H]1Nc1ncc2cc(-c3c(Cl)c(OC)cc(OC)c3Cl)c(Cl)cc2n1 [Compound 55]
26 | < 10 | < 10 | C=CC(=O)N[C@H]1CN(C(=O)COC)C[C@H]1Nc1ncc2cc(-c3c(Cl)c(OC)cc(OC)c3Cl)ccc2n1 [Compound 86]
27 | < 10 | < 10 | C=CC(=O)N[C@H]1COC[C@H]1Nc1ncc2cc(-c3c(Cl)c(OC)cc(OC)c3Cl)cc(Cl)c2n1 [Compound 54]
28 | < 10 | < 10 | C=CC(=O)N[C@H]1COC[C@H]1Nc1ncc2cc(-c3c(Cl)c(OC)cc(OC)c3Cl)cc(F)c2n1 [Compound 46]
29 | < 10 | 10 to 100 | C=CC(=O)N[C@H]1CN(C(=O)CO)C[C@H]1Nc1ncc2cc(-c3c(Cl)c(OC)cc(OC)c3Cl)ccc2n1 [Compound 76]
30 | < 10 | < 10 | C=CC(=O)N[C@H]1CN(C(=O)C2CC2)C[C@H]1Nc1ncc2cc(-c3c(Cl)c(OC)cc(OC)c3Cl)ccc2n1 [Compound 80]
31 | < 10 | 10 to 100 | C=CC(=O)N[C@H]1CN(C(=O)CN2CCCC2)C[C@H]1Nc1ncc2cc(-c3c(Cl)c(OC)cc(OC)c3Cl)ccc2n1 [Compound 91]
32 | < 10 | < 10 | C=CC(=O)N[C@H]1CCOC[C@H]1Nc1cc2c(cn1)cc(-c1c(Cl)c(OC)cc(OC)c1Cl)c(=O)n2C [Compound 64]
33 | < 10 | 10 to 100 | C=CC(=O)NC1CN(C(C)=O)CC1Nc1ncc2cc(-c3c(Cl)c(OC)cc(OC)c3Cl)ccc2n1 (stereo not shown) [Compound 58]
34 | < 10 | 10 to 100 | C=CC(=O)NC1CN(C(=O)COC)CC1Nc1ncc2cc(-c3c(Cl)c(OC)cc(OC)c3Cl)ccc2n1 (stereo not shown) [Compound 85]
